These are literature values, as cited in patent US6326378A, “Use of thiadiazolo[4,3-a]pyridine derivatives” (Roche Diagnostics GmbH, priority 1998, dated 2001).

For the data set the following is noted: cited from earlier work.

With `Cn1c(=O)c2[nH]cnc2n(C)c1=O` [theophylline], the side effects result (at slightly increased doses) is “nausea, giddiness, tachycardia and tremor”. Moreover, the therapeutic breadth result (employed for therapy) was “small therapeutic breadth”.
